The structures appear in SMILES notation.

For three compounds, IC50 results are on record in patent US20070149547A1, “Bipyridyl amides as modulators of metabotropic glutamate receptor-5” (priority 2004, published 2007).

This assay addresses T1, hmGluR5a receptor (Homo sapiens, UniProt P41594).
T1 construct: expressed in transfected cells; host or cells: HEK293 cells (hm5a cell line)
Description: Calcium flux assay (fura-2, glutamate-evoked [Ca2+]i). The assay is classed as cell-based. To be noted: assay not given; follows the calcium flux / PI statement; read-out: IC50 (mGluR5 inhibitory activity). Here is the method:
The compounds of this invention were tested against the hmGluR5a receptor stably expressed in mouse fibroblast Ltk^− cells (the hmGluR5a/L38-20 cell line) and activity was detected by changes in [Ca^++]i, measured using the fluorescent Ca^++-sensitive dye, fura-2. InsP assays were performed in mouse fibroblast Ltk^− cells (LM5a cell line) stably expressing hmGluR5a. The assays described in International Patent Publication WO 0116121 can be used.
The activity of compounds was examined against the hmGluR5a receptor stably expressed in human embryonic kidney HEK293 cells (the hmGluR5a cell line designated hm5a). See generally Daggett et al., Neuropharmacology 34:871-886 (1995). Receptor activity was detected by changes in intracellular calcium ([Ca^2+]i) measured using the fluorescent calcium-sensitive dye, fura-2. The hm5a cells were plated onto 96-well plates, and loaded with 3 µM fura-2 for 1 h. Unincorporated dye was washed from the cells, and the cell plate was transferred to a 96-channel fluorimeter (SIBIA-SAIC, La Jolla, Calif.) which is integrated into a fully automated plate handling and liquid delivery system. Cells were excited at 350 and 385 nm with a xenon source combined with optical filters. Emitted light was collected from the sample through a dichroic mirror and a 510 nm interference filter and directed into a cooled CCD camera (Princeton Instruments). Image pairs were captured approximately every 1 s, and ratio images were generated after background subtraction. After a basal reading of 20 s, an EC80 concentration of glutamate (10 µM) was added to the well, and the response evaluated for another 60 s. The glutamate-evoked increase in [Ca′]i in the presence of the screening compound was compared to the response of glutamate alone (the positive control).
For orientation: Calcium flux is commonly read through the fluorescence of an indicator in the cells.

T1 sequence (P41594 21-1180 isoform P41594-2 limits assumed): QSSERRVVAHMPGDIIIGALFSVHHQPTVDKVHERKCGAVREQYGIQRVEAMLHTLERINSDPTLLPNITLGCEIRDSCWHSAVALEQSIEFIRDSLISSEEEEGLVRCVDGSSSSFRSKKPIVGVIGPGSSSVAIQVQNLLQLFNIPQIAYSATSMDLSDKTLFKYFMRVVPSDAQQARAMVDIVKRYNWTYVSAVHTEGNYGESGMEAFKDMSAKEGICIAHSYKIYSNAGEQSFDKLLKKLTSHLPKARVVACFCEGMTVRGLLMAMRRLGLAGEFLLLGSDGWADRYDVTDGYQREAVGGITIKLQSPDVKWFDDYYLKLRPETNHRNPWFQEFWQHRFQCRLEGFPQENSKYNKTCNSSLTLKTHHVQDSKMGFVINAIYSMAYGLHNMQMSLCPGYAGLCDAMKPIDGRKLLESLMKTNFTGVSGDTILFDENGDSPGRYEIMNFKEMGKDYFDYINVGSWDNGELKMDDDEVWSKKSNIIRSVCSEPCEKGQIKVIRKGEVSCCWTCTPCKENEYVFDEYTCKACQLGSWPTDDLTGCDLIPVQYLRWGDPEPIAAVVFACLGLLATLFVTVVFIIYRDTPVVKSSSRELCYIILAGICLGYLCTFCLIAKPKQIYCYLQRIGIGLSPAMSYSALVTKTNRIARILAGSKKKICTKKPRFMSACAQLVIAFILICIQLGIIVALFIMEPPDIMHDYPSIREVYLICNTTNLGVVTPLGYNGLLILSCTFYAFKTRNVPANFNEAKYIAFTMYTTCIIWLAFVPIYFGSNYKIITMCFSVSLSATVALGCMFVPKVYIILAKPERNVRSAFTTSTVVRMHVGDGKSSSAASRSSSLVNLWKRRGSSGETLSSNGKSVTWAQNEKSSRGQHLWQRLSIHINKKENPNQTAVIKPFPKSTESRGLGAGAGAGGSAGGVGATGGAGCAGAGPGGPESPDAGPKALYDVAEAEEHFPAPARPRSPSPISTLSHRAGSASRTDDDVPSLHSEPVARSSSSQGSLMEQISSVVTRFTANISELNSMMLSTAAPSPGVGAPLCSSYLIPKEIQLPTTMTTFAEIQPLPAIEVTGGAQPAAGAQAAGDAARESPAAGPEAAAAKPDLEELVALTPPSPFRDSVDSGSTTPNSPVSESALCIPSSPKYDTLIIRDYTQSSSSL

As to `Cc1cccc(C(=O)Nc2cccc(-c3ccccc3)n2)n1` [Example 58, 6-Methyl-N-(6-phenylpyridin-2-yl)pyridine-2-carboxamide], the half-maximal inhibitory concentration (IC50) (usually the point on the concentration scale where inhibition reaches its midpoint) was 3 µM. Next, `N#Cc1cccc(NC(=O)c2nc(Cl)cnc2N)n1` [Example 29, 3-Amino-6-chloro-N-(6-cyanopyridin-2-yl)pyrazine-2-carboxamide]: 0.5 µM. Regarding `Nc1nc(C(F)(F)F)cnc1C(=O)Nc1ccccn1` [Example 38, 3-Amino-N-pyridin-2-yl-5-(trifluoromethyl)pyrazine-2-carboxamide], the IC50 stood at 1.3 µM.
